Measured values published in US7402603B2, “Cyclooxygenase-2 inhibitor/histone deacetylase inhibitor combination” (Novartis AG, priority 2001, dated 2008).

How the values were obtained:
[1] = body weight change and deaths in the mouse model of adenomatous polyposis; format: in vivo; conditions: COX 125 ppm in feed ad libitum, HDAI 10 mg/kg i.v. 3x/wk for three weeks
Protocol: 5-methyl-2-(2′-chloro-6′-fluoro-anilino)-phenyl acetic acid (alternatively named [2-(2′-chloro-6′-fluoro-phenylamino)-5-methyl-phenyl]acetic acid; for the preparation see Example 1) (“COX”) and N-hydroxy-3-[4-[[(2-hydroxyethyl)[2-(1H-indol-3-yl)ethyl]-amino]methyl]phenyl]-2E-2-propenamide (alternatively named (E)-N-Hydroxy-3-[4-({(2-hydroxy-ethyl)-[2-(1H-indol-3-yl)-ethyl]-amino}-methyl)-phenyl]-acrylamide; for the preparation see Example 3) (“HDAI”) are tested as single agents and together as combination therapy in a mouse model of adenomatous polyposis for the prevention and treatment of intestinal polyps. HDAI is administered intravenously to the mice at 10 mg/kg in a 5% (w/v) dextrose in water solution, q.d., 3 times per week for three weeks. COX is administered as a dietary admixture at a concentration of 125 ppm. % T/C is the quotient of the mean number of polyps in the treated mice divided by the mean number of polyps in the control mice times 100. The following results of duplicate experiments are observed: […]

intestinal polyps = assay: mouse model of adenomatous polyposis, prevention and treatment of intestinal polyps; format: in vivo; conditions: COX 125 ppm in feed ad libitum, HDAI 10 mg/kg i.v. 3x/wk for three weeks
Protocol: 5-methyl-2-(2′-chloro-6′-fluoro-anilino)-phenyl acetic acid (alternatively named [2-(2′-chloro-6′-fluoro-phenylamino)-5-methyl-phenyl]acetic acid; for the preparation see Example 1) (“COX”) and N-hydroxy-3-[4-[[(2-hydroxyethyl)[2-(1H-indol-3-yl)ethyl]-amino]methyl]phenyl]-2E-2-propenamide (alternatively named (E)-N-Hydroxy-3-[4-({(2-hydroxy-ethyl)-[2-(1H-indol-3-yl)-ethyl]-amino}-methyl)-phenyl]-acrylamide; for the preparation see Example 3) (“HDAI”) are tested as single agents and together as combination therapy in a mouse model of adenomatous polyposis for the prevention and treatment of intestinal polyps. HDAI is administered intravenously to the mice at 10 mg/kg in a 5% (w/v) dextrose in water solution, q.d., 3 times per week for three weeks. COX is administered as a dietary admixture at a concentration of 125 ppm. % T/C is the quotient of the mean number of polyps in the treated mice divided by the mean number of polyps in the control mice times 100. The following results of duplicate experiments are observed:
Both agents alone cause a statistically significant reduction in the number of newly formed intestinal polyps. […] Statistical evaluations are performed using a one tailed Student t-test and all p values are less than 0.01.

[2] = second of duplicate experiments

Structure (SMILES) | % Body Wt. Change ([1]; first of duplicate experiments) | Dead/Total animals ([1]; first of duplicate experiments) | % Body Wt. Change [1, 2] | Dead/Total animals [1, 2] | % T/C (mean number of polyps treated / control x 100) (intestinal polyps; first of duplicate experiments) | Mean Intestinal Polyp Count (# ± SEM) (intestinal polyps; first of duplicate experiments) | % T/C (mean number of polyps treated / control x 100) (intestinal polyps; [2]) | Mean Intestinal Polyp Count (# ± SEM) (intestinal polyps; [2])
O=C(/C=C/c1ccc(CN(CCO)CCc2c[nH]c3ccccc23)cc1)NO [HDAI, N-hydroxy-3-[4-[[(2-hydroxyethyl)[2-(1H-indol-3-yl)ethyl]-amino]methyl]phenyl]-2E-2-propenamide] | +3.5 ± 0.1% | 0/7 | +9.6 ± 0.1% | 0/7 | 52% | 12 ± 0.57 # | 57% | 15 ± 0.3 #
Cc1ccc(Nc2c(F)cccc2Cl)c(CC(=O)O)c1 [COX, 5-methyl-2-(2′-chloro-6′-fluoro-anilino)-phenyl acetic acid] | +10 ± 0.1% | 0/7 | +8.1 ± 0.2% | 0/7 | 60% | 14 ± 0.7 # | 46% | 12 ± 0.3 #
